Converted amounts (≈) assume the structure as drawn. “And” between values parts separate entries of the source, which are not always exact repeats. Equal entries are not always repeated.
Assays:
[1] = system: A. baumannii biofilm; assay: EBEC, high number biofilms on PEEK membranes (10^9 to 10^2 CFU/PEEK membrane in 24 hours); format: cell-based, Acinetobacter baumannii; conditions: for EBEC, A. baumannii: Table 4; for EBEC relative to MIC against A. baumannii: EBEC greater than the MIC by this factor
Procedure: In addition to determining the MIC and the MBEC of polyamine compounds against planktonic bacteria and low number biofilms, our group wanted to determine the efficacy of polyamine compounds against high number biofilms. To do so, biofilms were grown on the surface of polyetheretherketone (PEEK) membranes using a membrane biofilm reactor. This reactor is similar to the CDC biofilm reactor, but rather than growing biofilms on coupon surfaces, the reactor was modified to hold PEEK membranes. In short, to grow biofilms within this system, 500 mL of brain heart infusion (BHI) broth were inoculated with 1 mL of a 0.5 McFarland. The reactor was placed on a hot plate set at 34° C. and the bacteria were grown under batch conditions for 24 hours. Following this protocol, biofilms typically grow to 10^9 CFU/PEEK membrane. […] A solution of 10% BHI was then flowed through the reactor at a rate of 6.94 mL/min for an additional 24 hours. PEEK membranes were then removed and placed into 2 mL of CAMHB that contained a desired concentration of polyamine compound or antibiotic. The EBEC was defined as the concentration of antimicrobial required to reduce a biofilm from approximately 10^9 CFU/PEEK membrane to approximately 10^2 CFU/PEEK membrane in a 24-hour period.
In addition to determining the MIC and the MBEC of compounds against planktonic bacteria and low number biofilms, the efficacy of the compounds of the invention against high number biofilms is determined. To do so, biofilms are grown on the surface of PEEK membranes using a membrane biofilm reactor (Williams, D. L., Haymond, B. S. & Bloebaum, R. D. Use of delrin plastic in a modified CDC biofilm reactor. Res J Microbiol 6, 425-429 (2011); Williams, D. L., Woodbury, K. L., Haymond, B. S., Parker, A. E. & Bloebaum, R. D. A modified CDC biofilm reactor to produce mature biofilms on the surface of PEEK membranes for an in vivo animal model application. Curr Microbiol 62, 1657-1663 (2011); Williams, D. L. et al., In Vivo Efficacy of a Silicone—Cationic Steroid Antimicrobial Coating to Prevent Implant-Related Infection. Biomaterials 33, 8641-8656 (2012); Williams, D. L. et al., Experimental model of biofilm implant-related osteomyelitis to test combination biomaterials using biofilms as initial inocula. J Biomed Mat Res A 100, 1888-1900 (2012)). This reactor is similar to the CDC biofilm reactor, but rather than growing biofilms on coupon surfaces, the reactor was modified to hold PEEK membranes. In short, to grow biofilms within this system, 500 mL of brain heart infusion (BHI) broth is inoculated with 1 mL of a 0.5 McFarland. The reactor is placed on a hot plate set at 34° C. and the bacteria grown under batch conditions for 24 hours. A solution of 10% BHI will then be flowed through the reactor at a rate of 6.94 mL/min for an additional 24 hours. Following this protocol, biofilms typically grow to 10^9 CFU/PEEK membrane. PEEK membranes is removed and placed into 2 mL of CAMHB that contain a desired concentration of the test compound. The EBEC is defined as the concentration of antimicrobial required to reduce a biofilm from approximately 10^9 CFU/PEEK membrane to approximately 10^2 CFU/PEEK membrane in a 24-hour period.
EBEC data were collected to determine the efficacy of CZ-52, CZ-58 and traditional antibiotics against high number biofilms containing approximately 10^9 CFU grown on the surface of a polyetheretherketone (PEEK) membrane. […] In contrast, at 250 μg/mL CZ-52 was able to reduce MRSA biofilms by greater than 7 log10 units in a 24-hour period. Although the MIC of CZ-58 was lower against MRSA compared to A. baumannii, CZ-58 had greater activity against biofilms of A. baumannii than against MRSA biofilms in the EBEC assay. […] Although the MIC of CZ-58 was “high” compared to MICs of traditional antibiotics, the efficacy against biofilms was promising.

[2] = system: P. aeruginosa; assay: MIC in CAMHB, 96-well plate (10^5 to 10^2 CFU/mL in 24 hours); format: cell-based; conditions: Pseudomonas aeruginosa
Procedure: To determine the MIC of polyamine compounds, the protocol described herein was used.
In brief, a 0.5 McFarland of each bacterial isolate was made. A 0.5 McFarland is a measure of turbidity in a liquid sample that contains approximately 1×10̂^8 CFU/mL. The 0.5 McFarland standard was diluted in cation adjusted Mueller Hinton Broth (CAMHB), and […], of broth were added to a well of a 96-well plate. In addition, 50 μL of CAMHB that contained a desired concentration of antimicrobial were also added to the well for a final volume of 100 and a final concentration of approximately 5×10^4 CFU/well (which equated to approximately 5×10^5 CFU/mL). Each well contained a desired amount of polyamine compound in order to experimentally determine the MIC. Each 96-well plate was incubated at 37° C. for 24 hours. The contents of each well were plated on tryptic soy agar (TSA). TSA plates were incubated for 37° C. for 24 hours after which the number of CFU were counted and used to calculate the CFU/mL that remained after exposure to varying concentrations of compound. This procedure was repeated n=8 times for each concentration of antimicrobial.

[3] = system: A. baumannii biofilm; assay: MBEC, MBEC Inoculation Tray by Innovotech (to 10^2 CFU/peg in 24 hours); format: cell-based, Acinetobacter baumannii; conditions: Table 3B titled MICs, group head missing, values match MBEC; for MIC: Acinetobacter baumannii
[4] = Table 3A, first P. aeruginosa column

| Compound | EBEC, A. baumannii [1] | MIC [2, 4] [µg/mL] | MIC ([2]; Table 5, class symbols) [µM] | MIC [3] [µg/mL] | EBEC relative to MIC against A. baumannii [1] | MIC, A. baumannii [3] [µg/mL] | activity against A. baumannii biofilms relative to MRSA biofilms ([1]; greater activity against A. baumannii biofilms) [fold] |
| --- | --- | --- | --- | --- | --- | --- | --- |
| NCCCNCCCNCc1cccc(CNCCCNCCCN)c1 [CZ-25] | ~7,500 μg/mL | 50 | > 100 | 450 (≈ 1230 µM) | – | – | – |
| Polymyxin B sulfate [reference compound] | 1,000 μg/mL and 722 μM | – | – | – | 1,000 × | 50 | – |
| NCCCNCCCNCc1cc(CNCCCNCCCN)cc(CNCCCNCCCN)c1 [CZ-52] | ~7,000 μg/mL and ~14,000 μM | 17 | – | 300 (≈ 591 µM) | – | – | – |
| NCCCNCCCNCc1cc(CNCCCNCCCN)cc(-c2ccccc2)c1 [CZ-58] | 400 μg/mL and 908 μM | – | < 50 | – | ~13 × | – | 10 |

From patent US20150274639A1, “METHODS OF USE FOR COMPOSITIONS COMPRISING A BIOCIDAL POLYAMINE” (Curza Global, LLC, priority 2013, published 2015)
